In patent US20190365675A1, “COMPOSITIONS FOR THE PREVENTION AND/OR TREATMENT OF ALCOHOL USE DISORDERS” (SERVICIO ANDALUZ DE SALUD, priority 2016, published 2019):

Columns and labels:
Format in all cases: in vivo, Wistar rats
rats = experiment: Elevated plus maze test during ethanol withdrawal
Method: In this third experiment (n=25), the treatment with ethanol intoxication and pre-treatment with OEA applied in experiment 2 was repeated, and the animals were subjected to elevated plus maze test 24 h and 12 days after the last forced administration of ethanol and to the forced swim test 48 h after the ethanol intoxication protocol. The rats were subjected to the forced swim test two days after the last ethanol force-feeding (see FIG. 1C for the experimental design), and specific behaviors were recorded with a digital video camera for 5 minutes. These same rats were also subjected to the elevated plus maze test equipped with infrared light photography (Panlab, Barcelona, Spain) 1 and 12 days after the last ethanol force-feeding, where the animals were allowed to freely explore the maze for 5 minutes. The tests were performed 3 h after the start of the dark phase.

TNF-α = TNF-α mRNA and protein (ELISA) in frontal cortex and plasma after ethanol intoxication; conditions: OEA pre-treatment
Method: The animals were treated with intragastric (i.g.) ethanol 3 times a day using an i.g. cannula (16G needle, Fisher Scientific, Waltham, Mass., USA), following a protocol based on a slightly modified standard 4-day alcohol intoxication pattern (Bernier et al., 2002a, b) (FIG. 1A). The ethanol doses were administered every 8 h for a total time of 4 days. The rats treated with ethanol received an initial loading dose of 5 g/kg of ethanol in a 30% solution (w/v) and then a maximum maintenance dose of 3 g/kg, which were determined based on blood ethanol levels (BEL). This repeated standard alcohol intoxication paradigm kept BEL intoxication relatively constant in a range of sedation/ataxia (190 to 430 mg/dl, Table 3), according to the 6-point alcohol intoxication behavior scale (Majchrowicz, 1975). The mean dose of ethanol/rat/day (days 1-4) was 7.06 g/kg, similar to other studies (Obernier et al., 2002a, b). OEA (5 mg/kg, i.p., except initial dose of 10 mg/kg i.p.; synthesized as described in Giuffrida et al., 2000) was dissolved in the vehicle (5% Tween-80 in saline solution) and injected 10 minutes before each of the administrations of ethanol by an intragastric gavage. The anti-inflammatory activity of OEA at 10 mg/kg per intraperitoneal route in the frontal cortex before the injection of LPS (Sayd et al., 2014) was previously referred to. In this study, OEA is repeatedly injected as a pre-treatment before each administration of ethanol. […] The quantitative changes in mRNA levels were estimated by means of RT-PCR, carried out in the presence of the SYBR green primer using a 20-L reaction in a Rotor-Gene (Corbett Research®, Mortlake, NSW, Australia). […] The levels of soluble HMGB1, TNF-α, IL-1β and MCP-1 were determined by means of a commercially available enzyme-linked immunosorbent assay kit (ELISA) (Elabscience Biotechnology Co., Ltd., China, for HMGB-1; RayBiotech®, GA, USA, for TNF-α, IL-1β, and MCP-1). The nuclear/cytosol HMGB1 fraction was determined by means of Western blot analysis.

MD2 = MD2 protein expression in frontal cortex after ethanol intoxication; conditions: 2-4 h after last ethanol, OEA pre-treatment
Method: The animals were treated with intragastric (i.g.) ethanol 3 times a day using an i.g. cannula (16G needle, Fisher Scientific, Waltham, Mass., USA), following a protocol based on a slightly modified standard 4-day alcohol intoxication pattern (Bernier et al., 2002a, b) (FIG. 1A). The ethanol doses were administered every 8 h for a total time of 4 days. The rats treated with ethanol received an initial loading dose of 5 g/kg of ethanol in a 30% solution (w/v) and then a maximum maintenance dose of 3 g/kg, which were determined based on blood ethanol levels (BEL). This repeated standard alcohol intoxication paradigm kept BEL intoxication relatively constant in a range of sedation/ataxia (190 to 430 mg/dl, Table 3), according to the 6-point alcohol intoxication behavior scale (Majchrowicz, 1975). The mean dose of ethanol/rat/day (days 1-4) was 7.06 g/kg, similar to other studies (Obernier et al., 2002a, b). OEA (5 mg/kg, i.p., except initial dose of 10 mg/kg i.p.; synthesized as described in Giuffrida et al., 2000) was dissolved in the vehicle (5% Tween-80 in saline solution) and injected 10 minutes before each of the administrations of ethanol by an intragastric gavage. […] The autoradiograph was quantified by densitometry (NIH ImageJ® software, National Biosciences, Lincoln, Nebr. USA) and expressed as optical density (OD). […]

For `CCCCCCCC/C=C\CCCCCCCC(=O)NCCO` [OEA, oleoylethanolamide], the “Elevated plus maze: percentage of entries and time in the open arms” value (rats; 24 h after ethanol intoxication, Dunn's post-hoc test did not find significant effects) was “clear trend that shows a clear anxiolytic effect”, the “Elevated plus maze: percentage of entries and time in the open arms” value (rats; 12 days after ethanol intoxication) was “not significant” and the “Ethanol-induced increase in TNF-α protein levels” value (TNF-α; frontal cortex, ELISA) was “not prevented”. For the same compound, the “Ethanol-induced increase in TNF-α mRNA” value (TNF-α; frontal cortex) was “did not prevent”, the “Increase in plasma TNF-α after ethanol intoxication” value (TNF-α; plasma, ELISA) was “partially prevented” and the “Ethanol-induced increase in MD2 protein” value (MD2) was “inhibited”.
